Source: patent publication US4570005A, “Process for the preparation of 2-arylpropyl ether or thioether derivatives” (priority 1980, dated 1986)

Experiments:
[1] = test system: sensitive green rice leafhopper (collected at Chigasaki); experiment: whole plant or invertebrate; assay type: in vivo; details: Nephotettix cincticeps, sensitive female adults, 24 hours, read-out: Mortality (%), Green Rice Leafhopper Collected at Chigasaki
Method in brief: (§1)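 Ten adult females per pot, either resistant (Nakagawara) or sensitive (Chigasaki), were caged on air-dried rice seedlings (2–3 leaves) sprayed at 3 ml/pot with 100 or 20 ppm of an emulsifiable concentrate dilution. Dead and living insects were counted after 24 hours; mortality is the mean of three pots.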

two-spotted spider mite = experiment: Test 6: Effect on Two-Spotted Spider mite Adults; assay type: in vivo; details: Tetranychus urticae; 100 ppm; adults; 24 hours; 25° C; read-out: Mortality (%)
Procedure: To a mixture of 20 parts of the compound of the present invention and 20 parts of Sorpol SM-200 (registered tradename for the product supplied by Toho Chemical Industrial Co., Ltd.) was added 60 parts of xylol, and the mixture was suffciently blended. The obtained emulsifiable concentrate was diluted at a predetermined concentration with distilled water, and the obtained dilution was used.
A kidney bean leaf disc perforated with a cork borer (15 mm in diameter) was placed on water-impregnated absorbent cotton (2 cm×2 cm), and 10 adults of two-spotted spider mite were set free. A chemical dilution having a concentration of 100 ppm was applied with an applicator in an amount of 3 ml.
The leaf disc-placed absorbent cotton was placed in a thermostat chamber maintained at 25° C. After 24 hours, the number of killed adults was counted and the mortality was calculated. The test was made on three leaf discs and the average value was calculated.

green peach aphid = experiment: Test 5: Effect on Green Peach Aphid; assay type: in vivo; details: Myzus persicae; 100 ppm; mortality class; 24 hours; read-out: Insecticidal Activity
Method in brief: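 Eggplant seedlings with 3–4 leaves were infested with aphids and sprayed with a 100 ppm aqueous dilution of an emulsifiable concentrate, then kept in a glasshouse. Living insects were counted after 24 h. Mortality is averaged over three pots and graded A (>95%), B (80–95%), C (50–80%) or D (<50%).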

[2] = test system: resistant green rice leafhopper (collected at Nakagawara); experiment: Test 3: Effect on Resistant Green Rice Leafhopper (collected at Nakagawara); assay type: in vivo, Nephotettix cincticeps Uhler (Green rice leafhopper); details: Nephotettix cincticeps, 24 h, read-out: Mortality (%), Green Rice Leafhopper Collected at Nakagawara
Method in brief: as §1

[3] = Test 9: Toxicity Test (acute oral toxicity, mice); details: mouse, in vivo, po
Procedure: A predetermined amount of a solution or suspension of a test compound in corn oil was orally administered to male mice having a body weight of 19 to 23 g (0.2 ml per 10 g of the body weight). After 7 days, the number of killed mice was counted and the influences on the mice were examined.

German cockroach = experiment: Test 7: Effect on German Cockroach; assay type: in vivo; details: Blattella germanica, male adults, agonized and killed after 24 hours, read-out: Mortality (%); for mortality at 10 mg/m2: 10 mg/m^2; for mortality at 50 mg/m2: 50 mg/m^2
Method in brief: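 Petri dish floors were treated with 50 or 10 mg/m2 of compound (diluted emulsifiable concentrate) and air-dried. Ten male adult German cockroaches per dish were held at 25° C. Agonized and dead insects were counted after 24 hours, averaging two dishes.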

Test 8: Fish Toxicity = assay type: in vivo; details: carp, water; concentration at which 1/2 of the test fishes were killed within 48 hours; read-out: Fish Toxicity, TLm48
Procedure: A water tank having a width of 60 cm, a length of 30 cm and a height of 40 cm was filled with water, and 10 yearling carps having a body length of about 5 cm were set free in the tank and adapted to the environment in the tank. A test compound was applied so that the concentration in water was 10, 1 or 0.1 ppm. After 48 hours, the numbers of killed and living carps were counted and the influences on the fishes were examined.

tobacco cutworm [4] = experiment: Test 1: Effect on Tobacco Cutworm (leaf immersion), mortality after 24 hours; assay type: in vivo; details: second-instar larvae, 25° C
Method in brief: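 Second-instar tobacco cutworm larvae were kept at 25 °C on air-dried sweet-potato leaves that had been immersed for 10 s in test dilutions of 100 or 20 ppm from an emulsifiable concentrate. Mortality was scored at 24 h as the mean of three cups.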

diamond back moth = experiment: Test 4: Effect on Diamond Back Moth; assay type: in vivo; details: Plutella, third-instar larvae, 24 hours, read-out: Mortality (%)
Method in brief: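 Compound formulated as an emulsifiable concentrate, diluted in water to 100 or 20 ppm and sprayed at 3 ml per cup onto cabbage leaves holding 10 third-instar larvae. Mortality counted after 24 hours; mean of three cups.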

tobacco cutworm [5] = experiment: Test 2: Tobacco Cutworm Larva Dipping Test, mortality after 24 hours; assay type: in vivo; details: 24 hours
Method in brief: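 Second- and fifth-instar larvae dipped 5 s in a water dilution of an emulsifiable concentrate at 100 or 20 ppm, blotted, then held on artificial diet at 25° C. Dead and living larvae counted after 24 hours; mortality averaged over three cups.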

[6] = fifth-instar larvae, read-out: Motality (%), Fifth-Instar Larvae
[7] = second-instar larvae, read-out: Motality (%), Second-Instar Larvae

Compound: CC(C)(COCc1cccc(Oc2ccccc2)c1)c1ccccc1 [Compound 5, 3-Phenoxybenzyl 2-phenyl-2-methylpropyl ether]
- mortality at 20 ppm [1]: 100%
- mortality at 100 ppm [1]: 100%
- mortality at 100 ppm (two-spotted spider mite): 100%
- mortality at 100 ppm (green peach aphid): > 95%
- mortality at 20 ppm [2]: 100%
- mortality at 100 ppm [2]: 100%
- LD50 at 168 h [3]: > 500 mg/kg
- mortality at 10 mg/m2 (German cockroach): 80%
- mortality at 50 mg/m2 (German cockroach): 100%

Compound: Cc1ccc(C(C)(C)COCc2cccc(Oc3ccccc3)c2)cc1 [Compound 47, 3-Phenoxybenzyl 2-(4-methylphenyl)-2-methylpropyl ether]
- LC50 at 48 h (Test 8: Fish Toxicity): > 10 mg/L
- mortality at 20 ppm [1]: 100%
- mortality at 100 ppm [1]: 100%
- mortality at 100 ppm (two-spotted spider mite): 100%
- mortality at 20 ppm [2]: 100%
- mortality at 100 ppm [2]: 100%
- LD50 at 168 h [3]: > 500 mg/kg
- mortality at 20 ppm (tobacco cutworm [4]): 90%
- mortality at 100 ppm (tobacco cutworm [4]): 100%
- mortality at 10 mg/m2 (German cockroach): 90%
- mortality at 50 mg/m2 (German cockroach): 100%

Compound: CC(C)(COCc1cccc(Oc2ccc(F)cc2)c1)c1ccc(F)cc1 [Compound 45]
- LC50 at 48 h (Test 8: Fish Toxicity): > 1 mg/L
- mortality at 20 ppm [1]: 100%
- mortality at 100 ppm [1]: 100%
- mortality at 20 ppm (diamond back moth): 100%
- mortality at 100 ppm (diamond back moth): 100%
- mortality at 100 ppm (two-spotted spider mite): 100%
- mortality at 20 ppm [2]: 100%
- mortality at 100 ppm [2]: 100%
- LD50 at 168 h [3]: > 500 mg/kg
- mortality at 20 ppm (tobacco cutworm [4]): 100%
- mortality at 100 ppm (tobacco cutworm [4]): 100%
- mortality at 10 mg/m2 (German cockroach): 100%
- mortality at 50 mg/m2 (German cockroach): 100%

Compound: CC(C)(COCc1cccc(Oc2ccccc2)c1)c1ccc(OC(F)F)cc1 [Compound 18, 3-phenoxybenzyl 2-(4-difluoromethoxyphenyl)-2-methylpropyl ether]
- mortality at 20 ppm [1]: 100%
- mortality at 100 ppm [1]: 100%
- mortality at 20 ppm (diamond back moth): 100%
- mortality at 100 ppm (diamond back moth): 100%
- mortality at 100 ppm (two-spotted spider mite): 100%
- mortality at 20 ppm (tobacco cutworm [5]; [6]): 100%
- mortality at 20 ppm (tobacco cutworm [5]; [7]): 100%
- mortality at 100 ppm (tobacco cutworm [5]; [6]): 100%
- mortality at 100 ppm (tobacco cutworm [5]; [7]): 100%
- mortality at 100 ppm (green peach aphid): > 95%
- mortality at 20 ppm [2]: 100%
- mortality at 100 ppm [2]: 100%
- LD50 at 168 h [3]: > 500 mg/kg
- mortality at 20 ppm (tobacco cutworm [4]): 100%
- mortality at 100 ppm (tobacco cutworm [4]): 100%
- mortality at 10 mg/m2 (German cockroach): 100%
- mortality at 50 mg/m2 (German cockroach): 100%

Compound: CC(C)(C)c1ccc(C(C)(C)COCc2cccc(Oc3ccccc3)c2)cc1 [Compound 105, 3-Phenoxybenzyl 2-(4-tert-butylphenyl)-2-methylpropyl ether]
- LC50 at 48 h (Test 8: Fish Toxicity): > 1 mg/L
- mortality at 100 ppm (two-spotted spider mite): 100%
- mortality at 100 ppm (green peach aphid): 80 to 95%
- LD50 at 168 h [3]: > 500 mg/kg

Compound: Cc1ccc(C(C)(C)COCc2cccc(Oc3ccc(Br)cc3)c2)cc1 [Compound 33, 3-(4-Bromophenoxy)benzyl 2-(4-methylphenyl)-2-methylpropyl ether]
- LC50 at 48 h (Test 8: Fish Toxicity): > 10 mg/L
- mortality at 20 ppm [1]: 100%
- mortality at 100 ppm [1]: 100%
- mortality at 20 ppm (diamond back moth): 90%
- mortality at 100 ppm (diamond back moth): 100%
- mortality at 100 ppm (two-spotted spider mite): 95%
- mortality at 20 ppm [2]: 100%
- mortality at 100 ppm [2]: 100%
- LD50 at 168 h [3]: > 500 mg/kg
- mortality at 20 ppm (tobacco cutworm [4]): 90%
- mortality at 100 ppm (tobacco cutworm [4]): 100%

Compound: CCCOc1ccc(C(C)(C)COCc2cccc(Oc3ccccc3)c2)cc1 [Compound 57, 3-Phenoxybenzyl 2-[4-(n-propoxy)phenyl]-2-methylpropyl ether]
- mortality at 20 ppm [1]: 100%
- mortality at 100 ppm [1]: 100%
- mortality at 20 ppm (diamond back moth): 75%
- mortality at 100 ppm (diamond back moth): 100%
- mortality at 100 ppm (two-spotted spider mite): 90%
- mortality at 100 ppm (green peach aphid): > 95%
- mortality at 20 ppm [2]: 100%
- mortality at 100 ppm [2]: 100%
- LD50 at 168 h [3]: > 500 mg/kg
- mortality at 20 ppm (tobacco cutworm [4]): 100%
- mortality at 100 ppm (tobacco cutworm [4]): 100%
